Values quoted from earlier work in patent US6439069B1, “Method and apparatus for detecting subterranean termites” (priority 1999, dated 2002).

Experiments:
[1] = system: foraging termites; settings: food sources impregnated with 0.5% of the substance
[2] = system: subterranean termites; settings: for 20-30 years or more

Row | Compound | palatability of impregnated food source [1] | control of subterranean termites [2]
1 | O.O.O.O.O=BOB1OB(OB=O)OB2OB([O-])OB([O-])OB(O1)O2.[Na+].[Na+] [disodium octaborate tetrahydrate] | acceptably palatable | –
2 | ClC1=C(Cl)C2(Cl)C3C(Cl)C(Cl)CC3C1(Cl)C2(Cl)Cl (stereo not drawn) [chlordane] | – | 100%
3 | ClC1=C(Cl)C2(Cl)C3C(Cl)C=CC3C1(Cl)C2(Cl)Cl (stereo not drawn) [heptachlor] | – | 100%
